pIC50: −log10 of the molar value.
Target: Recombinant human BACE1 (Homo sapiens (Human), UniProt P56817)
Assay: Assay of BACE1 inhibiting activity
Assay type: biochemical
Details: read-out: IC50 (50% inhibitory concentration against the enzymatic activity); Recombinant human BACE1 7.4 nmol/L, substrate peptide 18 nmol/L, pH 5.0, 30° C., 3 hours
Experimental: 48.5 μL of substrate peptide solution (Biotin-XSEVNLDAEFRHDSGC-Eu: X=ε-amino-n-capronic acid, Eu=Europium cryptate) was added to each well of 96-hole half-area plate (a black plate: Costar), and after addition of 0.5 μl of the test compound (dissolved in N,N′-dimethyl formaldehyde) and 1 μl of Recombinant human BACE1(R&D Systems), the reaction mixture was incubated at 30° C. for 3 hours. The substrate peptide was synthesized by reacting Cryptate TBPCOOH mono SMP (CIS bio international) with Biotin-XSEVNLDAEFRHDSGC (Peptide Institute, Inc.).
After the incubation for reaction, 50 μl of 8.0 μg/ml Streptavidin-XL665 (CIS bio international) dissolved in phosphate buffer (150 mmol/L K2HPO4—KH2PO4, pH 7.0, 0.008% Triton X-100, 0.8 mol/L KF) was added to each well and left stand at 30° C. for an hour.

Sequence of Recombinant human BACE1 (P56817 46-501): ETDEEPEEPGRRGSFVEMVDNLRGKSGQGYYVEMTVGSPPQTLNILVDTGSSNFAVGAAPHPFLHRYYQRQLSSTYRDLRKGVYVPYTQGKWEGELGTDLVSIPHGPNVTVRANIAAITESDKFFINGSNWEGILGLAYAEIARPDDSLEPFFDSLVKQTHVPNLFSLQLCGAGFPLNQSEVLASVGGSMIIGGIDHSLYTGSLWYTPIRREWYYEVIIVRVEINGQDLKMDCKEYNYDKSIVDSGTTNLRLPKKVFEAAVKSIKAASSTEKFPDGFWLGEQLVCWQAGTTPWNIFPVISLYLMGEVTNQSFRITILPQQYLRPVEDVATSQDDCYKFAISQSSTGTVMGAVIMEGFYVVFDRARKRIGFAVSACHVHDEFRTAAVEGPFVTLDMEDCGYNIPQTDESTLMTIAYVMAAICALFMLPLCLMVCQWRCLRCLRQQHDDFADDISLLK

| SMILES | pIC50 |
| --- | --- |
| C=C1C[C@@](C)(c2cc(NC(=O)c3cnc(OC)cn3)ccc2F)N=C(N)O1 [Compound I-3] | ≥ 4.52 |
| C=C1C[C@@](C)(c2cc(NC(=O)c3ncc(F)cc3F)ccc2F)N=C(N)O1 [Compound I-5] | ≥ 4.52 |
| C=C1C[C@@](C)(c2cc(NC(=O)c3ccc(Cl)cn3)ccc2F)N=C(N)O1 [Compound I-2] | 7.57 |
| C=C1C[C@@](C)(c2cc(NC(=O)c3ncc(Cl)cc3Cl)ccc2F)N=C(N)O1 [Compound I-4] | ≥ 4.52 |
